Data on 27 compounds can be found in US20070249590A1, “Substituted indolo[2,3-a]pyrrolo[3,4-c]carbazole compounds useful in treating kinase disorders” (priority 2005, published 2007).

In the test the target is T1, JAK3 (JH1 and JH2 domain) (Homo sapiens, UniProt P52333).
T1 sequence (P52333 521-1111 limits assumed): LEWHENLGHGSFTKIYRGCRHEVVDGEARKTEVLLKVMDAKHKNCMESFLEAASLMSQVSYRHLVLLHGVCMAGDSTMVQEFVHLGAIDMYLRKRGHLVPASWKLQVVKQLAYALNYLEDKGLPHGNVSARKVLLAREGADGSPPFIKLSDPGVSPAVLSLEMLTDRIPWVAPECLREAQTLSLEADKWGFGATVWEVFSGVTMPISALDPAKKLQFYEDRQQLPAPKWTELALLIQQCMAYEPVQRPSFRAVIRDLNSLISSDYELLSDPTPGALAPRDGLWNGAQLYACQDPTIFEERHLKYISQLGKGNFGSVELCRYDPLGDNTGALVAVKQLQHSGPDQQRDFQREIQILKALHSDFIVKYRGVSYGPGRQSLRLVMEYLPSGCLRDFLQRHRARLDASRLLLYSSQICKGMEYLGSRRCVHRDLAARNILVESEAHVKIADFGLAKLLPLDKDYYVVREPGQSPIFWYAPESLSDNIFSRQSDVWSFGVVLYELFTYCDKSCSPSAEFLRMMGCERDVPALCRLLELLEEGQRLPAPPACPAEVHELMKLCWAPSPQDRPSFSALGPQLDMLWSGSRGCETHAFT
The test can be described thus: JAK3 Kinase Assay (ELISA of peptide substrate phosphorylation). The test is classed as biochemical. The following applies: purified JAK3 enzyme, 10 μM ATP, biotinylated peptide substrate, 1 hour at room temperature. Put shortly:
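Sf21-baculovirus-expressed JAK3 (JH1+JH2), glutathione-bead purified, with biotinylated peptide substrate (in buffer containing 10 μM ATP) in HEPES pH 7.5/MgCl2/DTT, 1 h RT. Product was captured on Neutravidin, detected with HRP anti-phosphotyrosine (PY99)/TMB, OD 450/650 nm. Triplicate 16-point half-log series from 200 μM gave IC50; otherwise % inhibition at 1 μM.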
For orientation: An ELISA detects its analyte on a solid surface through an enzyme-linked reagent.
As usually defined, the IC50 is the midpoint of a concentration-inhibition curve. `CN(C)CCCN1CCN(C(=O)OC2CCCn3c4ccccc4c4c5c(c6c7ccccc7n(c6c43)C2)C(=O)NC5=O)CC1` (stereo not drawn) [Cpd 115, 12,13-(2-{[4-(3-dimethylamino-prop-1-yl)piperazin-1-y]carbonyloxy}-pentan-1,5-yl)-12,13-dihydro-5,7-dioxo-6H-indolo[2,3-a]pyrrolo[3,4-c]carbazole]: the half-maximal inhibitory concentration (IC50) is over 200 nM. Take `CN(C)C1CCN(C(=O)OC2Cn3c4ccccc4c4c5c(c6c7ccccc7n(c6c43)CC2O)C(=O)NC5=O)C1` (stereo not drawn) [Cpd 100, 12,13-{2-[(3-dimethyl-pyrrolidin-1-yl)carbonyloxy]-3-hydroxy-butan-1,4-yl}-12,13-dihydro-5,7-dioxo-6H-indolo[2,3-a]pyrrolo[3,4-c]carbazole]: the IC50 amounted to 173 nM.

As for `O=C1NCc2c1c1c3cc(/C=C/Cn4ccnc4)ccc3n3c1c1c2c2ccccc2n1CC(O)C(O)C3` (stereo not drawn) [Cpd 201], the IC50 is 24 nM. The value for `O=C1NC(=O)c2c1c1c3ccccc3n3c1c1c2c2ccccc2n1CC(OC(=O)N1CCOCC1)C(O)C3` (stereo not drawn) [Cpd 98, 12,13-[2-(morpholin-4-yl-carbonyloxy)-3-hydroxy-butan-1,4-yl]-12,13-dihydro-5,7-dioxo-6H-indolo[2,3-a]pyrrolo[3,4-c]carbazole] was 108 nM.

For `O=C1NCc2c1c1c3ccccc3n3c1c1c2c2ccccc2n1CCC(OC(=O)N1CCOCC1)CC3` (stereo not drawn) [Cpd 185, 12,13-[3-(morpholin-4-yl-carbonyloxy)-pentan-1,5-yl]-6,7,12,13-tetrahydro-5-oxo-5H-indolo[2,3-a]pyrrolo[3,4-c]carbazole], the IC50 came to 69 nM. The value for `O=C1NC(=O)c2c1c1c3ccccc3n3c1c1c2c2ccccc2n1CC(OC(=O)N1CCN(CCO)CC1)CC3` (stereo not drawn) [Cpd 66, 12,13-(2-{[4-(2-hydroxy-ethyl)piperazin-1-yl]carbonyloxy}-butan-1,4-yl)-12,13-dihydro-5,7-dioxo-6H-indolo[2,3-a]pyrrolo[3,4-c]carbazole] was 40 nM. Take `O=C1NC(=O)c2c1c1c3cc(-c4cnccn4)ccc3n3c1c1c2c2ccccc2n1CC(O)CC3` (stereo not drawn) [Cpd 35, 3-pyrazin-2-yl-12,13-(2-hydroxy-butan-1,4-yl)-12,13-dihydro-5,7-dioxo-6H-indolo[2,3-a]pyrrolo[3,4-c]carbazole]: the IC50 is 13 nM. On to `O=C1NCc2c1c1c3ccccc3n3c1c1c2c2ccccc2n1CC/C=C\CC3` [Cpd 5, 12,13-(hex-3-en-1,6-yl)-6,7,12,13-tetrahydro-5-oxo-5H-indolo[2,3-a]pyrrolo[3,4-c]carbazole], for which the IC50 worked out at 39 nM. Then `CN1CCN(Cc2ccc3c(c2)c2c4c(c5c6ccccc6n6c5c2n3CC(O)C(O)C6)CNC4=O)CC1` (stereo not drawn) [Cpd 193, 3-(4-methyl-piperazin-1-ylmethyl)-12,13-(2,3-dihydroxy-butan-1,4-yl)-6,7,12,13-tetrahydro-5-oxo-5H-indolo[2,3-a]pyrrolo[3,4-c]carbazole], with 135 nM; and `O=C1NC(=O)c2c1c1c3ccccc3n3c1c1c2c2ccccc2n1CC(O)(C(=O)NCCCN1CCOCC1)C(O)C3` (stereo not drawn) [Cpd 120, 12,13-{2-[(3-morpholin-4-yl-prop-1-yl)carbamoyl]-2,3-dihydroxy-butan-1,4-yl}-12,13-dihydro-5,7-dioxo-6H-indolo[2,3-a]pyrrolo[3,4-c]carbazole], with 17 nM. The value for `O=C1NC(=O)c2c1c1c3cc(-c4ccncc4)ccc3n3c1c1c2c2ccccc2n1CC(O)CC3` (stereo not drawn) [Cpd 33, 3-pyridin-4-yl-12,13-(2-hydroxy-butan-1,4-yl)-12,13-dihydro-5,7-dioxo-6H-indolo[2,3-a]pyrrolo[3,4-c]carbazole] was 40 nM; that for `COC(=O)/C1=C/Cn2c3ccccc3c3c4c(c5c6ccccc6n(c5c32)C1)C(=O)NC4=O` [Cpd 3, 12,13-(2-methoxycarbonyl-but-2-en-1,4-yl)-12,13-dihydro-5,7-dioxo-6H-indolo[2,3-a]pyrrolo[3,4-c]carbazole] was 7 nM; that for `O=C1NCc2c1c1c3ccccc3n3c1c1c2c2ccccc2n1CC(O)(COC(=O)N1CCOCC1)C3` (stereo not drawn) [Cpd 138, 12,13-[2-hydroxy-2-(morpholin-4-yl-carbonyloxymethyl)-propan-1,3-yl]-6,7,12,13-tetrahydro-5-oxo-5H-indolo[2,3-a]pyrrolo[3,4-c]carbazole] was 161 nM. The value for `COC[C@H](C)NC(=O)OC1CCn2c3ccccc3c3c4c(c5c6ccccc6n(c5c32)CC1)C(=O)NC4` (stereo partly drawn) [Cpd 182, 12,13-[3-({2-[(1S)-2-methoxy-1-methyl]ethyl}carbamoyloxy)-pentan-1,5-yl]-6,7,12,13-tetrahydro-5-oxo-5H-indolo[2,3-a]pyrrolo[3,4-c]carbazole] was 1670 nM; that for `O=C1NC(=O)c2c1c1c3ccccc3n3c1c1c2c2ccccc2n1CC(OC(=O)N1CCCNCC1)C(O)C3` (stereo not drawn) [Cpd 111, 12,13-{2-[(hexahydro-1H-1,4-diazepin-1-yl)carbonyloxy]-3-hydroxy-butan-1,4-yl}-12,13-dihydro-5,7-dioxo-6H-indolo[2,3-a]pyrrolo[3,4-c]carbazole] was 460 nM.

Regarding `COCCNC(=O)OCC1(O)Cn2c3ccccc3c3c4c(c5c6ccccc6n(c5c32)C1)C(=O)NC4` (stereo not drawn) [Cpd 136, 12,13-{2-hydroxy-2-[(2-methoxy-ethyl)carbamoyloxymethyl]-propan-1,3-yl}-6,7,12,13-tetrahydro-5-oxo-5H-indolo[2,3-a]pyrrolo[3,4-c]carbazole], the IC50 worked out at 123 nM.

For the compound `CN(C)CCNC(=O)OC1Cn2c3ccccc3c3c4c(c5c6ccccc6n(c5c32)CC1O)C(=O)NC4=O` (stereo not drawn) [Cpd 77, 12,13-[2-[(2-dimethylamino-ethyl)carbamoyloxy]-3-hydroxy-butan-1,4-yl]-12,13-dihydro-5,7-dioxo-6H-indolo[2,3-a]pyrrolo[3,4-c]carbazole], the IC50 turned out to be 86 nM. The value for `O=C1NCc2c1c1c3ccccc3n3c1c1c2c2ccccc2n1C[C@@H](O)[C@H](O)C3` [Cpd 19, 12,13-[(2R,3R)-dihydroxy-butan-1,4-yl]-6,7,12,13-tetrahydro-5-oxo-5H-indolo[2,3-a]pyrrolo[3,4-c]carbazole] was 53 nM. The value for `CN1CCN(CCCNC(=O)OC2CCn3c4ccccc4c4c5c(c6c7ccccc7n(c6c43)C2)C(=O)NC5=O)CC1` (stereo not drawn) [Cpd 43, 12,13-(2-{[3-(4-methyl-piperazin-1-yl)prop-1-yl]carbamoyloxy}-butan-1,4-yl)-12,13-dihydro-5,7-dioxo-6H-indolo[2,3-a]pyrrolo[3,4-c]carbazole] was 112 nM; that for `CCCNC(=O)OC1CCn2c3ccccc3c3c4c(c5c6ccccc6n(c5c32)C1)C(=O)NC4=O` (stereo not drawn) [Cpd 38, 12,13-[2-(prop-1-ylcarbamoyloxy)-butan-1,4-yl]-12,13-dihydro-5,7-dioxo-6H-indolo[2,3-a]pyrrolo[3,4-c]carbazole] was over 400 nM; that for `CC1(C)OCC2(CO1)Cn1c3ccccc3c3c4c(c5c6ccccc6n(c5c31)C2)C(=O)NC4` [Cpd 26] was 95 nM.

On to `O=C1NCc2c1c1c3ccccc3n3c1c1c2c2ccccc2n1CC(O)C(O)C3` (stereo not drawn) [Cpd 14, 12,13-(2,3-dihydroxy-butan-1,4-yl)-6,7,12,13-tetrahydro-5-oxo-5H-indolo[2,3-a]pyrrolo[3,4-c]carbazole], for which the IC50 was 7 nM. Then `CN(C)[C@H]1CCN(C(=O)OC2CCn3c4ccccc4c4c5c(c6c7ccccc7n(c6c43)C2)C(=O)NC5=O)C1` (stereo partly drawn) [Cpd 73, 12,13-(2-{[(3S)-3-dimethylamino-pyrrolidin-1-yl]carbonyloxy}-butan-1,4-yl)-12,13-dihydro-5,7-dioxo-6H-indolo[2,3-a]pyrrolo[3,4-c]carbazole], with 42 nM. `O=C1NCc2c1c1c3cc([N+](=O)[O-])ccc3n3c1c1c2c2ccccc2n1CC(O)C(O)C3` (stereo not drawn) [Cpd 191, 3-nitro-12,13-(2,3-dihydroxy-butan-1,4-yl)-6,7,12,13-tetrahydro-5-oxo-5H-indolo[2,3-a]pyrrolo[3,4-c]carbazole]: the IC50 is 115 nM. For `COc1ccc2[nH]cc(CCNC(=O)OC3Cn4c5ccccc5c5c6c(c7c8ccccc8n(c7c54)CC3O)C(=O)NC6=O)c2c1` (stereo not drawn) [Cpd 87, 12,13-(2-{[2-(5-methoxy-1H-indol-3-yl)ethyl]carbamoyloxy}-3-hydroxy-butan-1,4-yl)-12,13-dihydro-5,7-dioxo-6H-indolo[2,3-a]pyrrolo[3,4-c]carbazole], the IC50 is 169 nM. Then `O=C1NC(=O)c2c1c1c3ccccc3n3c1c1c2c2ccccc2n1CC(OC(=O)N1CCCC1CN1CCCC1)CC3` (stereo not drawn) [Cpd 52, 12,13-(2-{[2-(pyrrolidin-1-yl-methyl)pyrrolidin-1-yl]carbonyloxy}-butan-1,4-yl)-12,13-dihydro-5,7-dioxo-6H-indolo[2,3-a]pyrrolo[3,4-c]carbazole], with 446 nM; and `CN(C)CCNC(=O)OCC1(O)Cn2c3ccccc3c3c4c(c5c6ccccc6n(c5c32)C1)C(=O)NC4` (stereo not drawn) [Cpd 173, 12,13-{2-hydroxy-2-[(2-dimethylamino-ethyl)carbamoyloxymethyl]-propan-1,3-yl}-6,7,12,13-tetrahydro-5-oxo-5H-indolo[2,3-a]pyrrolo[3,4-c]carbazole], with 69 nM.
